Data published in US6667335B2, “Imidazole derivatives” (Hoffmann-La Roche Inc., priority 2001, dated 2003).

Experiments:
NMDA-receptor subtype 2B = target: T1, NMDA-receptor subtype 2B (Rattus norvegicus, UniProt P35439+Q00960); assay: 3H-Ro 25-6981 binding (displacement) on rat brain membranes; details: displacement of 5 nM 3H-Ro 25-6981, rat whole brain membranes (minus cerebellum and medulla oblongata), 2 hours at 4° C.
T1 construct: Membranes were prepared by homogenization of the whole brain minus cerebellum and medulla oblongata; from tissue; host or cells: rat whole brain minus cerebellum and medulla oblongata, membrane preparation
T1 sequence (Q00960 27-1482, other chains not shown): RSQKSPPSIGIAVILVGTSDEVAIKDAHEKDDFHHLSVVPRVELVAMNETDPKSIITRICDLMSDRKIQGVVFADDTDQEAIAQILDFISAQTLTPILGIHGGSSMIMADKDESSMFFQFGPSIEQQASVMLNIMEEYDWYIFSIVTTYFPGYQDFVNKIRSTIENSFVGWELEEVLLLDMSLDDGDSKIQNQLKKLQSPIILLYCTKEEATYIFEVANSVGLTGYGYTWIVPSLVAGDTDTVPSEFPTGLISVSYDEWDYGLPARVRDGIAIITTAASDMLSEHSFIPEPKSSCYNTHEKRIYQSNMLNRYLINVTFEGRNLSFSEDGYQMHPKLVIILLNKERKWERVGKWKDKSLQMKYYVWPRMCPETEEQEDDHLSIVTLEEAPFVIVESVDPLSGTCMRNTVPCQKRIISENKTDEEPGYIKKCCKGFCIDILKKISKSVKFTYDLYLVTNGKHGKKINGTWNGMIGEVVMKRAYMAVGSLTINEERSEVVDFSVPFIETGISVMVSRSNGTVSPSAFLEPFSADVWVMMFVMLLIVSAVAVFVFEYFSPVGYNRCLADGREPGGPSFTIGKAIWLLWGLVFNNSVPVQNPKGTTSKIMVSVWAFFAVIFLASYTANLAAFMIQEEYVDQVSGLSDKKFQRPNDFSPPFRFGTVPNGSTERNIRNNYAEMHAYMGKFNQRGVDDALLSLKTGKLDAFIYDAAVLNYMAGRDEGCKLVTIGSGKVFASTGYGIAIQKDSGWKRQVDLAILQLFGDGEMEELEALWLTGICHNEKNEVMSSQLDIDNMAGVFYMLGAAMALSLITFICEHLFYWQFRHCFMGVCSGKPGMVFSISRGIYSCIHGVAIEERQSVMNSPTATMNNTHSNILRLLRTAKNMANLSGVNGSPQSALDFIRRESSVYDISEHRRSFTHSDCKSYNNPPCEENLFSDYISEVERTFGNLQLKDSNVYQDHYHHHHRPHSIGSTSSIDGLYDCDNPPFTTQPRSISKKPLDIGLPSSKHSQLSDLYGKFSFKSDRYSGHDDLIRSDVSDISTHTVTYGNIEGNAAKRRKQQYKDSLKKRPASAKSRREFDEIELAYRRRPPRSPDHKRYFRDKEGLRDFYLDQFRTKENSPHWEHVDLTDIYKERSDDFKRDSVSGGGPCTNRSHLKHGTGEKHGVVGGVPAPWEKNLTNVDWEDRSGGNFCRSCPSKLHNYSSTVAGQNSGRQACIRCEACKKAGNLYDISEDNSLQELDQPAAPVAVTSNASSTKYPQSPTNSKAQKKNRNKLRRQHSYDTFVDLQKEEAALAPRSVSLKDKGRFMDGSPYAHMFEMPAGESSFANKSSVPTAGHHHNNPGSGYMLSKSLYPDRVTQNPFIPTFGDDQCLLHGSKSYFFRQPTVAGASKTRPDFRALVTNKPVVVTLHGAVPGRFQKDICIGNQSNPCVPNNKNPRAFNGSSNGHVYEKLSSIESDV
Protocol: ^3H[R-(R*,S*)]-(α-(4-Hydroxy-phenyl)-β-methyl-4-(phenyl-methyl)-1-piperidine propanol)binding
Male Füllinsdorf albino rats weighing between 150-200 g were used. Membranes were prepared by homogenization of the whole brain minus cerebellum and medulla oblongata with a Polytron (10.000 rpm, 30 seconds), in 25 volumes of a cold Tris-HCl 50 mM, EDTA 10 mM, pH 7.1 buffer. The homogenate was centrifuged at 48,000 g for 10 minutes at 4° C. The pellet was resuspended using the Polytron in the same volume of buffer and the homogenate was incubated at 37° C. for 10 minutes. After centrifugation the pellet was homogenized in the same buffer and frozen at −80° C. for at least 16 hours but not more than 10 days. For the binding assay the homogenate was thawed at 37° C., centrifuged and the pellet was washed three times as above in a Tris-HCl 5 mM, pH 7.4 cold buffer. The final pellet was resuspended in the same buffer and used at a final concentration of […]. ^3H-Ro 25-6981 binding experiments were performed using a Tris-HCl 50 mM, pH 7.4 buffer. For displacement experiments 5 nM of ^3H-Ro 25-6981 were used and non specific binding was measured using 10 mM of tetrahydroisoquinoline and usually it accounts for 10% of the total. The incubation time was 2 hours at 4° C. and the assay was stopped by filtration on Whatmann GF/B glass fiber filters (Unifilter-96, Packard, Zürich, Switzerland). The filters were washed 5 times with cold buffer. The radioactivity on the filter was counted on a Packard Top-count microplate scintillation counter after addition of […] of microscint 40 (Canberra Packard S.A., Zuirich, Switzerland).
The effects of compounds were measured using a minimum of 8 concentrations and repeated at least once.

Compound | IC50 (NMDA-receptor subtype 2B) | melting point
Cc1nccn1Cc1cn(-c2cccc(SC(F)(F)F)c2)cn1.Cl.Cl [Example 144, 1H-Imidazole, 2-Methyl-1-[[1-[3-(trifluoromethylthio)phenyl]-1H-imidazol-4-yl]methyl]-, Hydrochloride (1:2)] | 38 nM | 169 to 170 °C
CCc1nccn1Cc1cn(-c2cccc(C(C)(F)F)c2)cn1.Cl.Cl [Example 146, 1H-Imidazole, 1-[[1-[3-(1,1-Difluoroethyl)phenyl]-1H-imidazol-4-yl]methyl]-2-ethyl-, Hydrochloride (1:2)] | 8 nM | 130 to 134 °C (dec.)
Cc1nccn1Cc1cn(-c2cccc(C(C)(F)F)c2)cn1.Cl.Cl [Example 147, 1H-Imidazole, 1-[[1-[3-(1,1-Difluoroethyl)phenyl]-1H-imidazol-4-yl]methyl]-2-methyl-, Hydrochloride (1:2)] | 9.2 nM | > 200 °C (dec.)
Cc1nccn1Cc1cn(-c2ccc(F)c(C(C)(F)F)c2)cn1.Cl.Cl [Example 149, 1H-Imidazole, 1-[[1-[3-(1,1-Difluoroethyl)-4-fluorophenyl]-1H-imidazol-4-yl]methyl]-2-methyl-, Hydrochloride (1:2)] | 8.2 nM | > 200 °C (dec.)
CC(F)(F)c1cc(-n2cnc(Cn3ccnc3)c2)ccc1F.Cl.Cl [Example 150, 1-[3-(1,1-Difluoro-ethyl)-4-fluoro-phenyl]-4-imidazol-1-ylmethyl-1H-imidazole Hydrochloride (1:2)] | 13.5 nM | > 200 °C (dec.)
Cc1nccn1Cc1cn(-c2cccc(C(C)C)c2)cn1.Cl.Cl [Example 152, 1H-Imidazole, 1-[[1-(3-Isopropylphenyl)-1H-imidazol-4-yl]methyl]-2-methyl-, Hydrochloride (1:2)] | 10 nM | > 200 °C (dec.)
CC(C)c1cccc(-n2cnc(Cn3ccnc3)c2)c1.Cl.Cl [Example 154, 4-Imidazol-1-ylmethyl-1-(3-isopropyl-phenyl)-1H-imidazole Hydrochloride (1:2)] | 48 nM | 200 to 206 °C
CCc1nccn1Cc1cn(-c2ccc(F)c(Br)c2)cn1.Cl.Cl [Example 156, 1H-Imidazole, 1-[[1-(3-Bromo-4-fluorophenyl)-1H-imidazol-4-yl]methyl]-2-ethyl-, Hydrochloride (1:2)] | 14 nM | 238 to 239 °C
Cc1nccn1Cc1cn(-c2ccc(F)c(Br)c2)cn1.Cl.Cl [Example 157, 1H-Imidazole, 1-[[1-(3-Bromo-4-fluorophenyl)-1H-imidazol-4-yl]methyl]-2-methyl-, Hydrochloride (1:2)] | 14 nM | 232 to 233 °C
Cl.Cl.Fc1ccc(-n2cnc(Cn3ccnc3)c2)cc1Br [Example 158, 1-(3-Bromo-4-fluoro-phenyl)-4-imidazol-1-ylmethyl-1H-imidazole Hydrochloride (1:2)] | 41 nM | 229 to 230 °C
CCc1cccc(-n2cnc(Cn3ccnc3C)c2)c1.Cl.Cl [Example 159, 1H-Imidazole, 1-[[1-(3-Ethylphenyl)-1H-imidazol-4-yl]methyl]-2-methyl-, Hydrochloride (1:2)] | 14 nM | > 200 °C (dec.)
CCc1cccc(-n2cnc(Cn3ccnc3CC)c2)c1.Cl.Cl [Example 160, 1H-Imidazole, 2-Ethyl-1-[[1-(3-ethylphenyl)-1H-imidazol-4-yl]methyl]-, Hydrochloride (1:2)] | 16 nM | > 200 °C (dec.)
CCc1cccc(-n2cnc(Cn3ccnc3)c2)c1.Cl.Cl [Example 161, 1-(3-Ethyl-phenyl)-4-imidazol-1-ylmethyl-1H-imidazole Hydrochloride (1:2)] | 50 nM | > 190 °C (dec.)
Cc1nccn1Cc1cn(-c2cccc(C3CC3)c2)cn1.Cl.Cl [Example 162, 1H-Imidazole, 1-[[1-(3-Cyclopropylphenyl)-1H-imidazol-4-yl]methyl]-2-methyl-, Hydrochloride (1:2)] | 16 nM | 174 to 175 °C
Cc1nccn1Cc1cn(-c2ccc(F)c(C(F)F)c2)cn1.Cl.Cl [Example 163, 1H-Imidazole, 1-[[1-(3-Difluoromethyl-4-fluorophenyl)-1H-imidazol-4-yl]methyl]-2-methyl-, Hydrochloride (1:2)] | 17 nM | 223 to 225 °C (dec.)
Cl.Cl.Fc1ccc(-n2cnc(Cn3ccnc3)c2)cc1C(F)F [Example 165, 1-(3-Difluoromethyl-4-fluoro-phenyl)-4-imidazol-1-ylmethyl-1H-imidazole Hydrochloride (1:2)] | 46 nM | 239 to 241 °C
CCc1nccn1Cc1cn(-c2cccc(SC)c2)cn1.Cl.Cl [Example 166, 1H-Imidazole, 2-Ethyl-1-[[1-[3-(methylthio)phenyl]-1H-imidazol-4-yl]methyl]-, Hydrochloride (1:2)] | 20 nM | > 200 °C (dec.)
Cc1nccn1Cc1cn(-c2cccc(OC(F)(F)F)c2)cn1.Cl.Cl [Example 170, 1H-Imidazole, 2-Methyl-1-[[1-[3-(trifluoromethoxy)phenyl]-1H-imidazol-4-yl]methyl]-, Hydrochloride (1:2)] | 39 nM | 221 to 223 °C
C=Cc1cccc(-n2cnc(Cn3ccnc3C)c2)c1.Cl.Cl [Example 172, 1H-Imidazole, 2-Methyl-1-[[1-(3-vinylphenyl)-1H-imidazol-4-yl]methyl]-, Hydrochloride (1:2)] | 24 nM | 207 to 208 °C
CCc1nccn1Cc1cn(-c2cccc(Cl)c2)cn1.Cl.Cl [Example 174, 1H-Imidazole, 1-[[1-(3-Chlorophenyl)-1H-imidazol-4-yl]methyl]-2-ethyl-, Hydrochloride (1:2)] | 63 nM | > 200 °C (dec.)
Cc1nccn1Cc1cn(-c2cccc(I)c2)cn1.Cl.Cl [Example 176, 1H-Imidazole, 1-[[1-(3-Iodophenyl)-1H-imidazol-4-yl]methyl]-2-methyl-, Hydrochloride (1:2)] | 32 nM | > 222 °C (dec.)
CCc1nccn1Cc1cn(-c2cc(F)cc(C(F)(F)F)c2)cn1.Cl.Cl [Example 177, 1H-Imidazole, 2-Ethyl-1-[[1-[3-fluoro-5(trifluoromethyl)phenyl]-1H-imidazol-4-yl]methyl]-, Hydrochloride (1:2)] | 37.5 nM | 243 to 244 °C
Cc1nccn1Cc1cn(-c2cc(F)cc(C(F)(F)F)c2)cn1.Cl.Cl [Example 178, 1H-Imidazole, 1-[[1-[3-Fluoro-5(trifluoromethyl)phenyl]-1H-imidazol-4-yl]methyl]-2-methyl-, Hydrochloride (1:2)] | 74 nM | > 250 °C
COc1cc(-n2cnc(Cn3ccnc3C)c2)cc(C(F)(F)F)c1.Cl.Cl [Example 180, 1H-Imidazole, 1-[[1-[3-Methoxy-5(trifluoromethyl)phenyl]-1H-imidazol-4-yl]methyl]-2-methyl-, Hydrochloride (1:2)] | 50 nM | 246 to 247 °C
Cc1nccn1Cc1cn(-c2cccc(C(C)(C)C)c2)cn1.Cl.Cl [Example 183, 1H-Imidazole, 1-[[1-(3-tert-Butylphenyl)-1H-imidazol-4-yl]methyl]-2-methyl-, Hydrochloride (1:2)] | 52 nM | > 200 °C (dec.)
Cc1nccn1Cc1cn(-c2ccc(OC(F)(F)F)c(Cl)c2)cn1.Cl.Cl [Example 186, 1H-Imidazole, 1-[[1-[3-Chloro-4(trifluoromethoxy)phenyl]-1H-imidazol-4-yl]methyl]-2-methyl-, Hydrochloride (1:2)] | 52 nM | 221 to 222 °C
CCc1nccn1Cc1cn(-c2cccc(OC(F)F)c2)cn1.Cl.Cl [Example 189, 1H-Imidazole, 1-[[1-[3-(Difluoromethoxy)phenyl]-1H-imidazol-4-yl]methyl]-2-ethyl-, Hydrochloride (1:2)] | 53 nM | 216 to 217 °C
Cc1nccn1Cc1cn(-c2cccc(Br)c2)cn1.Cl.Cl [Example 192, 1H-Imidazole, 1-[[1-(3-Bromophenyl)-1H-imidazol-4-yl]methyl]-2-methyl-, Hydrochloride (1:2)] | 55 nM | 205 to 207 °C
Cc1nccn1Cc1cn(-c2cccc(C(F)F)c2)cn1.Cl.Cl [Example 194, 1H-Imidazole, 1-[[1-[3-(Difluoromethyl)phenyl]-1H-imidazol-4-yl]methyl]-2-methyl-, Hydrochloride (1:2)] | 79 nM | 195 to 196 °C
